{
  "source": "patent US11807835B2",
  "about": "“Detergent compositions containing a stabilized enzyme by phosphonates” (ECOLAB USA INC., priority 2016, dated 2023)",
  "type_in_all_cases": "biochemical",
  "key": {"lipase": {"system": "lipase", "assay": "Lipase activity retention in detergent use solution (4000 ppm, 5 GPG water; p-nitrophenyl valerate, TRIS buffer pH 8.0)", "conditions": "base formula", "outline": "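Lipase stability was measured in a detergent use solution under conditions mimicking presoak or manual warewash, with stirring in a water bath. Aliquots were taken over time and flash-frozen. Thawed samples were diluted in TRIS buffer at pH 8.0 and assayed with p-nitrophenyl valerate as substrate on a plate reader. Activity is reported as % retained relative to the time=0 sample.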"}, "[1]": {"system": "enzyme (protease, amylase, lipase)", "assay": "Overall effects of phosphonates on enzyme activity (Table 3)", "conditions": "overall effect of the phosphonate on enzyme activity in the detergent use solution", "outline": "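Protease, amylase and lipase activity in detergent use solutions with varied phosphonate levels, 4000 ppm in 5 GPG water at 120° F., sampled up to 4 h and frozen at −80° C. before assay. Activity given as % retention relative to t=0 (100%).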"}, "amylase": {"system": "amylase", "assay": "Amylase activity retention in detergent use solution (4000 ppm, 5 GPG water; ethylidene substrate EPS, HEPES buffer pH 8.0)", "conditions": "base formula", "outline": "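Detergent use solution at 4000 ppm in 5 GPG water held at 120° F.; aliquots taken up to 4 h, flash-frozen, then assayed with p-nitrophenyl valerate in TRIS pH 8.0 (lipase) or EPS substrate in HEPES pH 8.0 (amylase). Retention given as % activity relative to t=0.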"}, "[2]": {"conditions": "phosphonate 0.6 wt-%, use solution at 120º F., time 0 min"}, "[3]": {"conditions": "phosphonate 0.6 wt-%, use solution at 120º F., time 5 min"}, "[4]": {"conditions": "phosphonate 0.6 wt-%, use solution at 120º F., time 10 min"}, "[5]": {"conditions": "phosphonate 0.6 wt-%, use solution at 120º F., time 20 min"}, "[6]": {"conditions": "phosphonate 0.6 wt-%, use solution at 120º F., time 40 min"}, "[7]": {"conditions": "phosphonate 0.6 wt-%, use solution at 120º F., time 60 min"}, "[8]": {"conditions": "phosphonate 0.6 wt-%, use solution at 120º F., time 90 min"}, "[9]": {"conditions": "phosphonate 0.6 wt-%, use solution at 120º F., time 120 min"}, "[10]": {"conditions": "phosphonate 0.6 wt-%, use solution at 120º F., time 150 min"}, "[11]": {"conditions": "phosphonate 0.6 wt-%, use solution at 120º F., time 180 min"}, "[12]": {"conditions": "phosphonate 0.6 wt-%, use solution at 120º F., time 210 min"}, "[13]": {"conditions": "phosphonate 0.6 wt-%, use solution at 120º F., time 240 min"}},
  "data": [
    {"compound": "NCP(=O)(O)O", "note": "[AMPA, Aminomethyl phosphonic acid]", "values": [
      {"measurement": "Relative Lipase Enzyme Activity", "setting": "lipase; [2]", "value": 100.00, "unit": "%"},
      {"measurement": "Relative Lipase Enzyme Activity", "setting": "lipase; [3]", "value": 80.17, "unit": "%"},
      {"measurement": "Relative Lipase Enzyme Activity", "setting": "lipase; [4]", "value": 64.48, "unit": "%"},
      {"measurement": "Relative Lipase Enzyme Activity", "setting": "lipase; [5]", "value": 49.45, "unit": "%"},
      {"measurement": "Relative Lipase Enzyme Activity", "setting": "lipase; [6]", "value": 37.77, "unit": "%"},
      {"measurement": "Relative Lipase Enzyme Activity", "setting": "lipase; [7]", "value": 26.82, "unit": "%"},
      {"measurement": "Relative Lipase Enzyme Activity", "setting": "lipase; [8]", "value": 19.59, "unit": "%"},
      {"measurement": "Relative Lipase Enzyme Activity", "setting": "lipase; [9]", "value": 15.84, "unit": "%"},
      {"measurement": "Relative Lipase Enzyme Activity", "setting": "lipase; [10]", "value": 15.01, "unit": "%"},
      {"measurement": "Relative Lipase Enzyme Activity", "setting": "lipase; [11]", "value": 13.23, "unit": "%"},
      {"measurement": "Relative Lipase Enzyme Activity", "setting": "lipase; [12]", "value": 12.05, "unit": "%"},
      {"measurement": "Relative Lipase Enzyme Activity", "setting": "lipase; [13]", "value": 11.16, "unit": "%"},
      {"measurement": "Relative Lipase Enzyme Activity", "setting": "lipase; phosphonate at 0.1% elemental phosphorus, at 120º F. or at room temperature (as titled), time 0 min", "value": 100.00, "unit": "%"},
      {"measurement": "Relative Lipase Enzyme Activity", "setting": "lipase; phosphonate at 0.1% elemental phosphorus, at 120º F. or at room temperature (as titled), time 5 min", "value": 79.03, "unit": "%"},
      {"measurement": "Relative Lipase Enzyme Activity", "setting": "lipase; phosphonate at 0.1% elemental phosphorus, at 120º F. or at room temperature (as titled), time 10 min", "value": 77.51, "unit": "%"},
      {"measurement": "Relative Lipase Enzyme Activity", "setting": "lipase; phosphonate at 0.1% elemental phosphorus, at 120º F. or at room temperature (as titled), time 20 min", "value": 62.55, "unit": "%"},
      {"measurement": "Relative Lipase Enzyme Activity", "setting": "lipase; phosphonate at 0.1% elemental phosphorus, at 120º F. or at room temperature (as titled), time 40 min", "value": 53.26, "unit": "%"},
      {"measurement": "Relative Lipase Enzyme Activity", "setting": "lipase; phosphonate at 0.1% elemental phosphorus, at 120º F. or at room temperature (as titled), time 60 min", "value": 44.19, "unit": "%"},
      {"measurement": "Relative Lipase Enzyme Activity", "setting": "lipase; phosphonate at 0.1% elemental phosphorus, at 120º F. or at room temperature (as titled), time 90 min", "value": 33.99, "unit": "%"},
      {"measurement": "Relative Lipase Enzyme Activity", "setting": "lipase; phosphonate at 0.1% elemental phosphorus, at 120º F. or at room temperature (as titled), time 120 min", "value": 28.67, "unit": "%"},
      {"measurement": "Relative Lipase Enzyme Activity", "setting": "lipase; phosphonate at 0.1% elemental phosphorus, at 120º F. or at room temperature (as titled), time 150 min", "value": 23.85, "unit": "%"},
      {"measurement": "Relative Lipase Enzyme Activity", "setting": "lipase; phosphonate at 0.1% elemental phosphorus, at 120º F. or at room temperature (as titled), time 180 min", "value": 16.98, "unit": "%"},
      {"measurement": "Relative Lipase Enzyme Activity", "setting": "lipase; phosphonate at 0.1% elemental phosphorus, at 120º F. or at room temperature (as titled), time 210 min", "value": 17.74, "unit": "%"},
      {"measurement": "Relative Lipase Enzyme Activity", "setting": "lipase; phosphonate at 0.1% elemental phosphorus, at 120º F. or at room temperature (as titled), time 240 min", "value": 16.10, "unit": "%"},
      {"measurement": "Stability (effects on enzyme activity)", "setting": "[1]", "value": "Yes"},
      {"measurement": "Relative Amylase Enzyme Activity", "setting": "amylase; phosphonate 0.3 wt-%, use solution at 120° F., time 0 min", "value": 82.13, "unit": "%"},
      {"measurement": "Relative Amylase Enzyme Activity", "setting": "amylase; phosphonate 0.3 wt-%, use solution at 120° F., time 5 min", "value": 100.00, "unit": "%"},
      {"measurement": "Relative Amylase Enzyme Activity", "setting": "amylase; phosphonate 0.3 wt-%, use solution at 120° F., time 10 min", "value": 95.55, "unit": "%"},
      {"measurement": "Relative Amylase Enzyme Activity", "setting": "amylase; phosphonate 0.3 wt-%, use solution at 120° F., time 20 min", "value": 101.29, "unit": "%"},
      {"measurement": "Relative Amylase Enzyme Activity", "setting": "amylase; phosphonate 0.3 wt-%, use solution at 120° F., time 40 min", "value": 80.17, "unit": "%"},
      {"measurement": "Relative Amylase Enzyme Activity", "setting": "amylase; phosphonate 0.3 wt-%, use solution at 120° F., time 60 min", "value": 80.10, "unit": "%"},
      {"measurement": "Relative Amylase Enzyme Activity", "setting": "amylase; phosphonate 0.3 wt-%, use solution at 120° F., time 90 min", "value": 87.43, "unit": "%"},
      {"measurement": "Relative Amylase Enzyme Activity", "setting": "amylase; phosphonate 0.3 wt-%, use solution at 120° F., time 120 min", "value": 92.65, "unit": "%"},
      {"measurement": "Relative Amylase Enzyme Activity", "setting": "amylase; phosphonate 0.3 wt-%, use solution at 120° F., time 150 min", "value": 93.49, "unit": "%"},
      {"measurement": "Relative Amylase Enzyme Activity", "setting": "amylase; phosphonate 0.3 wt-%, use solution at 120° F., time 180 min", "value": 102.37, "unit": "%"},
      {"measurement": "Relative Amylase Enzyme Activity", "setting": "amylase; phosphonate 0.3 wt-%, use solution at 120° F., time 210 min", "value": 103.78, "unit": "%"},
      {"measurement": "Relative Amylase Enzyme Activity", "setting": "amylase; phosphonate 0.3 wt-%, use solution at 120° F., time 240 min", "value": 102.93, "unit": "%"},
      {"measurement": "Relative Amylase Enzyme Activity", "setting": "amylase; [2]", "value": 100.00, "unit": "%"},
      {"measurement": "Relative Amylase Enzyme Activity", "setting": "amylase; [3]", "value": 91.80, "unit": "%"},
      {"measurement": "Relative Amylase Enzyme Activity", "setting": "amylase; [4]", "value": 92.54, "unit": "%"},
      {"measurement": "Relative Amylase Enzyme Activity", "setting": "amylase; [5]", "value": 85.05, "unit": "%"},
      {"measurement": "Relative Amylase Enzyme Activity", "setting": "amylase; [6]", "value": 94.06, "unit": "%"},
      {"measurement": "Relative Amylase Enzyme Activity", "setting": "amylase; [7]", "value": 86.14, "unit": "%"},
      {"measurement": "Relative Amylase Enzyme Activity", "setting": "amylase; [8]", "value": 90.32, "unit": "%"},
      {"measurement": "Relative Amylase Enzyme Activity", "setting": "amylase; [9]", "value": 93.67, "unit": "%"},
      {"measurement": "Relative Amylase Enzyme Activity", "setting": "amylase; [10]", "value": 92.05, "unit": "%"},
      {"measurement": "Relative Amylase Enzyme Activity", "setting": "amylase; [11]", "value": 81.43, "unit": "%"},
      {"measurement": "Relative Amylase Enzyme Activity", "setting": "amylase; [12]", "value": 94.06, "unit": "%"},
      {"measurement": "Relative Amylase Enzyme Activity", "setting": "amylase; [13]", "value": 81.87, "unit": "%"},
      {"measurement": "Relative Amylase Enzyme Activity", "setting": "amylase; phosphonate at 0.1% elemental phosphorus level, use solution at 120º F., time 0 min", "value": 97.43, "unit": "%"},
      {"measurement": "Relative Amylase Enzyme Activity", "setting": "amylase; phosphonate at 0.1% elemental phosphorus level, use solution at 120º F., time 5 min", "value": 100.00, "unit": "%"},
      {"measurement": "Relative Amylase Enzyme Activity", "setting": "amylase; phosphonate at 0.1% elemental phosphorus level, use solution at 120º F., time 10 min", "value": 102.34, "unit": "%"},
      {"measurement": "Relative Amylase Enzyme Activity", "setting": "amylase; phosphonate at 0.1% elemental phosphorus level, use solution at 120º F., time 20 min", "value": 105.43, "unit": "%"},
      {"measurement": "Relative Amylase Enzyme Activity", "setting": "amylase; phosphonate at 0.1% elemental phosphorus level, use solution at 120º F., time 40 min", "value": 92.18, "unit": "%"},
      {"measurement": "Relative Amylase Enzyme Activity", "setting": "amylase; phosphonate at 0.1% elemental phosphorus level, use solution at 120º F., time 60 min", "value": 92.23, "unit": "%"},
      {"measurement": "Relative Amylase Enzyme Activity", "setting": "amylase; phosphonate at 0.1% elemental phosphorus level, use solution at 120º F., time 90 min", "value": 96.88, "unit": "%"},
      {"measurement": "Relative Amylase Enzyme Activity", "setting": "amylase; phosphonate at 0.1% elemental phosphorus level, use solution at 120º F., time 120 min", "value": 92.96, "unit": "%"},
      {"measurement": "Relative Amylase Enzyme Activity", "setting": "amylase; phosphonate at 0.1% elemental phosphorus level, use solution at 120º F., time 150 min", "value": 103.38, "unit": "%"},
      {"measurement": "Relative Amylase Enzyme Activity", "setting": "amylase; phosphonate at 0.1% elemental phosphorus level, use solution at 120º F., time 180 min", "value": 102.05, "unit": "%"},
      {"measurement": "Relative Amylase Enzyme Activity", "setting": "amylase; phosphonate at 0.1% elemental phosphorus level, use solution at 120º F., time 210 min", "value": 91.32, "unit": "%"},
      {"measurement": "Relative Amylase Enzyme Activity", "setting": "amylase; phosphonate at 0.1% elemental phosphorus level, use solution at 120º F., time 240 min", "value": 99.25, "unit": "%"}
    ]}
  ]
}
